Data published in ChEMBL document CHEMBL1133506, “3-(3,5-Dimethoxyphenyl)-1,6-naphthyridine-2,7-diamines and related 2-urea derivatives are potent and selective inhibitors of the FGF receptor-1 tyrosine kinase” (J Med Chem, 2000).

Experiments:
[1] = molecular target: T1, Fibroblast growth factor receptor 1 (Homo sapiens, UniProt P11362); test: Inhibition of bFGF-mediated tyrosine phosphorylation; type: functional
Ovarian cancer cell line = test: Inhibition of human ovarian carcinoma (A90) FGF-R overexpressing cell proliferation
C6 = test: Inhibition of PDGF-dependent rat glioma C6 cell proliferation
[2] = molecular target: Platelet-derived growth factor receptor beta (Mus musculus, UniProt P05622)
Chain of Platelet-derived growth factor receptor beta (P05622 whole entry): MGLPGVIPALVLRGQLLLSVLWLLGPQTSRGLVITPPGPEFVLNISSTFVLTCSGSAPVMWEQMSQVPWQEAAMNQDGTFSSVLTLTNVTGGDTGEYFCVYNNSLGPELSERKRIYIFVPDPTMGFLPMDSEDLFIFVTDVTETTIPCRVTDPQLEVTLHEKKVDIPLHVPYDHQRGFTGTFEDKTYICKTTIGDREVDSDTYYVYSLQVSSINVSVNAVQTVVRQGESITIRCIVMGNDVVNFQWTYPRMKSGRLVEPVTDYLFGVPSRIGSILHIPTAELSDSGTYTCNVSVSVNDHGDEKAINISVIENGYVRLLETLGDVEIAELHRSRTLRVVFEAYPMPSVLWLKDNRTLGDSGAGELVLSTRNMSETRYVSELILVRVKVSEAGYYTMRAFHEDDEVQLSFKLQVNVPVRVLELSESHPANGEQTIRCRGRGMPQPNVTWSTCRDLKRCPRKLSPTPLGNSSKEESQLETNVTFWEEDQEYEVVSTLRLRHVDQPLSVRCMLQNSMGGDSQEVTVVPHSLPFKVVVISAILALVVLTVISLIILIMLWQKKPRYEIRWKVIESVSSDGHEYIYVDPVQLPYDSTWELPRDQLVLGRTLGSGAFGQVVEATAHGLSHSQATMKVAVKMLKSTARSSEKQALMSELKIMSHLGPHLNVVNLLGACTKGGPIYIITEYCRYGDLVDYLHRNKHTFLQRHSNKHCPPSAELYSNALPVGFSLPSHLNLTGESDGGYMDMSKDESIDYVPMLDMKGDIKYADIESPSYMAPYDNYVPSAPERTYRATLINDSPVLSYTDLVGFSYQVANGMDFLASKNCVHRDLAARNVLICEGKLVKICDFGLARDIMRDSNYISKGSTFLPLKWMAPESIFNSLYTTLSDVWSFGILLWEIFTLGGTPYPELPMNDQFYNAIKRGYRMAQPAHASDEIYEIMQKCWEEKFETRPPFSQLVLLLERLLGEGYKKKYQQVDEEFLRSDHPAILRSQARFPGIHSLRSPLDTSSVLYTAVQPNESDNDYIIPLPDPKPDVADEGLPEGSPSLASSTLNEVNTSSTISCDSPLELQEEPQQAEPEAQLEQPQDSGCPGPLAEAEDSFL
Description: Inhibition of the phosphorylation of a random glutamate-tyrosine (4:1) copolymer by isolated mouse Platelet-derived growth factor protein.

[3] = molecular target: T1, Fibroblast growth factor receptor 1
Description: Inhibition of the phosphorylation of a random glutamate-tyrosine (4:1) copolymer by isolated Fibroblast growth factor receptor 1.

HUVEC [4] = test: Inhibition of in vitro cell Human umbilical vein endothelial (HUVEC) cell proliferation
HUVEC [5] = test: (§1) Inhibition of microcapillary growth in HUVEC cells; details: Homo sapiens
HUVEC [6] = test: Inhibition of Matrigel invasion assay in HUVEC cells; type: functional, cell-based; details: Homo sapiens
HUVEC [7] = test: as §1; type: functional, cell-based; details: Homo sapiens
[8] = tested on: Lewis lung carcinoma cell line; test: Weight change in lewis lung murine tumor at 200 mg/kg peroral dose for days 4-12; type: functional, Mus musculus; details: route oral
Mus musculus [9] = test: Weight change in mammary 16/c murine tumor at 200 mg/kg peroral dose for days 1-9; type: functional, organism-based; parameters: dose 200 mg/kg
Mus musculus [10] = test: Difference in days for treated (T) and control (C) tumors to reach 750 mg in mammary 16/c murine tumor at 80 mg/kg; type: functional
Mus musculus [11] = test: Weight change in mammary 16/c murine tumor at 80 mg/kg peroral dose for schedule q12hx2, days 1-9; type: functional; details: route oral
Mus musculus [12] = test: Ratio of treated to control tumor mass on last therapy day in mammary 16/c murine tumor at 200 mg/kg dose; type: functional
Mus musculus [13] = test: Ratio of treated to control tumor mass on last therapy day in lewis lung murine tumor at 200 mg/kg dose; type: functional
M5076 [14] = test: Weight change in murine M5076 sarcoma tumor at 200 mg/kg peroral dose days 8-16; type: functional, organism-based; parameters: dose 200 mg/kg; details: Mus musculus
M5076 [15] = test: Ratio of treated to control tumor mass on last therapy day in M5076 sarcoma murine tumor at 200 mg/kg; type: functional, Mus musculus
M5076 [16] = test: Difference in days for treated (T) and control (C) tumors to reach 750 mg in murine M5076 sarcoma tumor at 200 mg/kg; type: functional, Mus musculus
Mus musculus [17] = test: Difference in days for treated (T) and control (C) tumors to reach 750 mg in mammary 16/c murine tumor at 200 mg/kg; type: functional
Mus musculus [18] = test: Difference in days for the treated (T) and control (C) tumors to reach 750 mg in lewis lung murine tumor at 200 mg/kg; type: functional
[19] = molecular target: Proto-oncogene tyrosine-protein kinase Src (Gallus gallus) (UniProt P00523); test: Inhibition of the phosphorylation of a random glutamate-tyrosine (4:1) copolymer by isolated avian c-Src protein.

T1 sequence (P11362 whole entry): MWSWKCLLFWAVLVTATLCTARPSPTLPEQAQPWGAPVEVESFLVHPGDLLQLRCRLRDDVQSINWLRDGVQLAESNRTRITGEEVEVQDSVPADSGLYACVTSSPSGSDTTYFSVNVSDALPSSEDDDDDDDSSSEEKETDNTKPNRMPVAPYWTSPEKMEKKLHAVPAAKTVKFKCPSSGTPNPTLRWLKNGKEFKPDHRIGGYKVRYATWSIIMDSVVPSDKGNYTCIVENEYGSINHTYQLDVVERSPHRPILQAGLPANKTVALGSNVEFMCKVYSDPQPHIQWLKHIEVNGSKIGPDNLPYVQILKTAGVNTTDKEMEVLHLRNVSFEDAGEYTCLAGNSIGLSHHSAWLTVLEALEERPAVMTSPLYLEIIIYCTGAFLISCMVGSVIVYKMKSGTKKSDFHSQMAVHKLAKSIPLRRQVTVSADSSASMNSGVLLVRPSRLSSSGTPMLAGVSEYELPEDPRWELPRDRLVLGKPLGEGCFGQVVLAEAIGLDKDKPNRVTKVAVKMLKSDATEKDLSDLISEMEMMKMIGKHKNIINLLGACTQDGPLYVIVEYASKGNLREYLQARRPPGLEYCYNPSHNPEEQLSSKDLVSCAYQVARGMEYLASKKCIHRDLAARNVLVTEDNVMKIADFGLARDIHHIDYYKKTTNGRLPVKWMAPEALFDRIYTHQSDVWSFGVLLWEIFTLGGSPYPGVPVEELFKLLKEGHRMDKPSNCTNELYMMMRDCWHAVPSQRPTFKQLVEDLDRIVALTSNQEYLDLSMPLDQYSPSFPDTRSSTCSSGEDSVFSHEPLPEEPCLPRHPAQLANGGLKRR

Structure (SMILES) | IC50 (Ovarian cancer cell line) | IC50 [2] | IC50 [3] | IC50 (C6) | IC50 (HUVEC [4]) | also measured
COC(=O)C1=C(c2ccccc2)c2ccccc2C1=O |  |  |  |  |  | IC50 [1]: 5.1 µM
COc1cc(OC)cc(-c2cc3cnc(NCCCN4CCOCC4)cc3nc2NC(=O)NC(C)(C)C)c1 | 0.92 µM | 45 µM |  | 3.1 µM | 85 nM | IC50 (HUVEC [5]): 1 nM
CC(C)(C)NC(=O)Nc1nc2cc(N)ncc2cc1-c1c(Cl)cccc1Cl |  | 1.8 µM | 120 nM |  |  | 
Cn1c(SSc2c(C(=O)Nc3ccccc3)c3ccccc3n2C)c(C(=O)Nc2ccccc2)c2ccccc21 |  |  |  |  |  | IC50 [1]: 4.5 µM
Nc1cc2nc(N)c(-c3ccccc3)cc2cn1 |  | 17 µM | 17000 nM |  |  | 
COc1cc(OC)cc(-c2cc3cnc(NC(=O)NC(C)(C)C)cc3nc2NC(=O)NC(C)(C)C)c1 | 11 µM | > 50 µM | 160 nM | 13 µM | 17 nM | IC50 (HUVEC [7]): 10 nM
CC(C)(C)NC(=O)Nc1nc2cc(N)ncc2cc1-c1ccccc1 |  | 2.6 µM | 1900 nM |  |  | 
COc1cc(OC)cc(-c2cc3cnc(N)nc3nc2N)c1 |  | > 50 µM | 230 nM |  |  | 
CCNC(=O)Nc1nc2nc(N)ncc2cc1-c1c(Cl)cccc1Cl |  |  | 130 nM |  |  | 
Nc1cc2nc(N)c(-c3c(Cl)cccc3Cl)cc2cn1 |  | 35 µM | 2800 nM |  |  | 
CC(C)(C)NC(=O)Nc1nc2nc(N)ncc2cc1-c1c(Cl)cccc1Cl |  | 1.1 µM | 130 nM |  |  | 
Nc1ncc2cc(-c3c(Cl)cccc3Cl)c(N)nc2n1 |  |  |  |  |  | IC50 [19]: 210 nM
COc1cc(OC)cc(-c2cc3cnc(N)cc3nc2NC(=O)Nc2ccccc2)c1 |  | > 50 µM | 510 nM |  |  | 
Cc1c[nH]c(/C=C2\C(=O)Nc3ccccc32)c1CCC(=O)O |  |  |  |  |  | IC50 [1]: 20 µM

Further lines, with some results ahead:

IC50 (Ovarian cancer cell line) | IC50 [2] | IC50 [3] | Structure (SMILES) | IC50 (C6) | IC50 (HUVEC [4]) | also measured
17 µM | > 50 µM | 200 nM | COc1cc(OC)cc(-c2cc3cnc(N)cc3nc2N)c1 | 8.9 µM | 820 nM | 
 | 11 µM | 150 nM | CCNC(=O)Nc1nc2cc(N)ncc2cc1-c1c(Cl)cccc1Cl |  |  | 
15 µM |  | 600 nM | COc1cc(OC)cc(-c2cc3cnc(N)nc3nc2NC(=O)NC(C)(C)C)c1 | > 25 µM | 580 nM | IC50 (HUVEC [6]): 1100 nM; IC50 (HUVEC [7]): 100 nM
 | > 50 µM | 95 nM | CNC(=O)Nc1nc2cc(N)ncc2cc1-c1cc(OC)cc(OC)c1 |  |  | 
17 µM | > 50 µM | 61 nM | COc1cc(OC)cc(-c2cc3cnc(NC(=O)C(F)(F)F)cc3nc2N)c1 | 9 µM | 4900 nM | 
9.3 µM | > 50 µM | 29 nM | CCNC(=O)Nc1nc2cc(N)ncc2cc1-c1cc(OC)cc(OC)c1 | 8 µM | 170 nM | 
 | 7.7 µM | 1300 nM | CCNC(=O)Nc1nc2cc(N)ncc2cc1-c1ccccc1 |  |  | 
12 µM | 4.7 µM | 25 nM | COc1cc(OC)cc(-c2cc3cnc(NC(C)=O)cc3nc2NC(=O)NC(C)(C)C)c1 | 0.65 µM | 4 nM | Weight change [8]: -0.4 g; Weight change (Mus musculus [9]): Weight gain; T-C (Mus musculus [10]): 10.8 days; IC50 (HUVEC [6]): 7 nM; Weight change (Mus musculus [11]): -0.7 g; T/C (Mus musculus [12]): 0%; T/C (Mus musculus [13]): 109%; Weight change (M5076 [14]): Weight gain; T/C (M5076 [15]): 78%; T-C (M5076 [16]): 1 days; T-C (Mus musculus [17]): 11.3 days; T-C (Mus musculus [18]): 0 days; IC50 (HUVEC [7]): 0.01 nM
1.2 µM | 38 µM | 42 nM | COc1cc(OC)cc(-c2cc3cnc(N)cc3nc2NC(=O)NC(C)(C)C)c1 | 8.5 µM | 5.5 nM | IC50 (HUVEC [6]): > 10000 nM; IC50 (HUVEC [7]): 100 nM
